This experiment deals with T1, GRK2 (Homo sapiens, UniProt P25098).
T1 construct: purchased SignalChem A14-10G
T1 sequence (P25098 1-689): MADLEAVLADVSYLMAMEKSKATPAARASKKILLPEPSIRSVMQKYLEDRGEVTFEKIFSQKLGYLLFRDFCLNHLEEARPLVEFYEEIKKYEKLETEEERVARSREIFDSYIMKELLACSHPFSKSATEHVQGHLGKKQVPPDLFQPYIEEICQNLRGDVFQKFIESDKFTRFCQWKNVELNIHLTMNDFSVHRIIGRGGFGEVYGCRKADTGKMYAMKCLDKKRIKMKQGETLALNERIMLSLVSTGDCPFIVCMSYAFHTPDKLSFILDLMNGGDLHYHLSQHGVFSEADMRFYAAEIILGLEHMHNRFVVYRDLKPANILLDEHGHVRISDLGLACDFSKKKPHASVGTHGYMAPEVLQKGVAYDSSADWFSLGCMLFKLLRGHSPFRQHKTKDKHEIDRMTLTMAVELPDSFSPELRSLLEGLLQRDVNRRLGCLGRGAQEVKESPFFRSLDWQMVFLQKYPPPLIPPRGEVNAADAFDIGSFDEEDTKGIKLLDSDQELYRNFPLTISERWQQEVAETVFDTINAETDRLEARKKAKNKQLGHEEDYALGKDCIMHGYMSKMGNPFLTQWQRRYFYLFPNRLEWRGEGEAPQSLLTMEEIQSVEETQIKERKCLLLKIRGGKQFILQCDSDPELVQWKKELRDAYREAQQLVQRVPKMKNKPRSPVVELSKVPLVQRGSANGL
Briefly: ADPGlo GRK2 Inhibition Assay (Example 8). The experiment is classed as biochemical. As for the experimental part:
HTS was performed using 1 μM compound.
Compounds were dissolved in 100% DMSO, serially diluted tree-fold from 100 μM concentration to 46 nM and transferred (50 nL) into assay ready plate.
Materials: GRK2 was purchased from SignalChem (Cat #A14-10G, Lot #X^645-3). Substrate GRKtide was from SignalChem (Cat #G46-58, Lot #R339-6). ADP-Glo Kinase Assay from Promega (Cat #V9102). Assay buffer consisted of 25 mMv HEPES (pH7.5), 10 mMv MgCl2, 0.01% Tween-20, 1 mM DDT. 384-well white plates were from Greiner […] (Item #784075).
HTS protocol: Take 384 well plate with 50 nL of compound in columns 3-22/DMSO solution 1-2,23-24. Add 2.5 μL assay buffer to columns 23 and 24 using Thermo Scientific Multidrop Combi Dispenser. Add 2.5 μL of 2× enzyme solution (15 nM in 1× assay buffer) using Thermo Scientific Multidrop Combi Reagent Dispenser to all columns except of 23 and 24. Incubate for 15 minutes. Fill plate with 2.5 μL of 2× substrate mix (20 μM ATP and 0.6 mg/nt GRKtide in Ix assay buffer) using Thermo Scientific Multidrop Combi Reagent Dispenser. Spin 15 seconds at 1000 rpm and incubate for 180 min at room temperature. Add 5 μL ADP-Glo reagent to all the wells. Spin 15 seconds at 1000 rpm and incubate for 40 min at room temperature. Add 10 μL Detection solution to all the wells. Incubate for 30 min at room temperature. Read plate in Luminescent modeon BMG PheraStar FSX (gain=3600).
Data Analysis: Data were analyzed in GraphPad Prism 8.0.2. Each HTS plate contains compounds in columns 3-22, controls (enzyme, no compound) in columns 1 and 2, and blanks (no enzyme) in columns 23 and 24. HTS percent inhibition was calculated for each compound from the signal in luminescence units and the mean of the plate controls and the mean of the plate blanks using the following equation: % Inhibition=100*(1−((signal-blank mean)/(control mean-blank mean))). At the final stage of data processing, we obtain dose-response curves, tables and SDF-files with the results of screening for each substance.
(In ADP-Glo the light output rises with the ADP produced.)

Setting [1] is: Enzyme Assay A, ADPGlo (Example 8), read-out: A: Enzymatic GRK2: IC50 (nM) (Example 8).
Where [2] appears, read: ADPGlo GRK2 enzyme assay, read-out: A: Enzymatic GRK2: IC50 (nM) (Example 8).
[3] abbreviates: 7.5 nM GRK2, 10 μM ATP, ADP-Glo, read-out: GRK2 IC50 (nM) (Example 8).

We go through 61 compounds from US20230009608A1, “GRK2 INHIBITORS AND USES THEREOF” (Cygnal Therapeutics, Inc., priority 2020, published 2023).

The term IC50 denotes the point on the concentration scale where inhibition reaches its midpoint.

Molecules are shown by their SMILES. Read-outs that look alike come from different tables or passages of the source.

As for `Cn1c(CNc2cccc(C(=O)NCc3ccc(F)cc3F)c2)nnc1-c1ccncn1`, the IC50 under setting [1] stood at 15 nM. With `Cn1c(CNc2cccc(C(=O)NCc3cc(F)ccc3F)c2)nnc1-c1ccncn1`, the IC50 under setting [1] turned out to be 27 nM. Take `Cc1ncsc1CNC(=O)c1cccc(NCc2nnc(-c3ccncn3)n2C)c1`: the IC50 under setting [1] was 16 nM. For the compound `Cc1cccc([C@H](C)NC(=O)c2cccc(NCc3nnc(-c4ccncn4)n3C)c2)n1`, the half-inhibitory concentration (IC50) under setting [1] came to 95 nM. Same read-out and setting: for `COc1ccc(F)cc1CNC(=O)c1cccc(NCc2nnc(-c3ccncn3)n2C)c1` the value was 15 nM; for `Cn1c(CNc2cccc(C(=O)N[C@@H](CF)c3ccccc3)c2)nnc1-c1ccncn1`, 97 nM.

With `Cn1c(CNc2cccc(C(=O)NC(CO)c3ccccc3F)c2)nnc1-c1ccncn1` (stereo not shown), the IC50 under setting [1] amounted to 60 nM.

Consider `Cn1c(CNc2cccc(C(=O)NC3CCCOc4ccccc43)c2)nnc1-c1ccncn1` (stereo not shown), for which, under setting [1], the IC50 was determined as 92 nM. Regarding `Cc1cc(CNC(=O)c2cccc(NCc3nnc(-c4ccncn4)n3C)c2)c(C)n1-c1ccccc1`, the IC50 under setting [1] was determined as 15 nM. The same measure, in the same setting: the figure for `Cn1c(CNc2cccc(C(=O)NCc3nc4ccccc4[nH]3)c2)nnc1-c1ccncn1` is 100 nM. The same measure, in the same setting: for `Cn1c(CNc2cccc(C(=O)NC(c3ccccc3)C(C)(C)CO)c2)nnc1-c1ccncn1` (stereo not shown) the value was 880 nM. `COc1cccc(C2(NC(=O)c3cccc(NCc4nnc(-c5ccncn5)n4C)c3)CC2)c1F`: the IC50 under setting [1] came to 23 nM. Consider `O=C(NCc1ccccn1)c1cccc(NCc2nnc(-c3ccncc3)[nH]2)c1`, for which the 50% inhibitory concentration (IC50) under setting [1] came out at 36 nM. The same measure, in the same setting: for `Cn1c(CNc2cccc(C(=O)NCc3ccc(Br)cn3)c2)nnc1-c1ccncn1` the value was 140 nM; for `Cc1cc(CNC(=O)c2cccc(NCc3nnc(-c4ccncn4)n3C)c2)no1`, 110 nM; for `Cc1cnc(CNC(=O)c2cccc(NCc3nnc(-c4ccncn4)n3C)c2)cn1`, 150 nM. `Cn1c(CNc2cccc(C(=O)NCc3c[nH]cn3)c2)nnc1-c1ccncn1`: the concentration for half-maximal inhibition (IC50) under setting [1] was found to be 110 nM. With `Cc1cnc(CNC(=O)c2cccc(NCc3nnc(-c4ccncn4)n3C)c2)nc1`, the IC50 under setting [1] is 580 nM. On to `CCS(=O)(=O)c1ccc(CNC(=O)c2cccc(NCc3nnc(-c4ccncn4)n3C)c2)nc1`, for which, under setting [1], the IC50 was found to be 100 nM. `Cn1c(CNc2cccc(C(=O)NCc3ccc(S(C)(=O)=O)cn3)c2)nnc1-c1ccncn1`: under setting [1], the IC50 is 240 nM. On the same count and under the same terms, for `CC(NC(=O)c1cccc(NCc2nnc(-c3ccncn3)n2C)c1)c1nnc2ccccn12` (stereo not shown) the value was 260 nM; for `CN(C)C[C@@H](NC(=O)c1cccc(NCc2nnc(-c3ccncn3)n2C)c1)c1ccccc1`, 210 nM. As for `Cn1c(CNc2cccc(C(=O)NCc3ncc(Cl)cn3)c2)nnc1-c1ccncn1`, the IC50 under setting [1] was found to be 240 nM. In the case of `Cn1c(CNc2cccc(C(=O)NC(CCO)c3ccc(F)cc3)c2)nnc1-c1ccncn1` (stereo not shown), under setting [1], the IC50 was found to be 52 nM. With `COc1ccc2c(c1)[C@@H](NC(=O)c1cccc(NCc3nnc(-c4ccncn4)n3C)c1)CCO2`, the IC50 under setting [1] is greater than 1000 nM. Turning to `Cn1c(CNc2cccc(C(=O)N[C@@H]3COCc4ccccc43)c2)nnc1-c1ccncc1`, the half-inhibitory concentration (IC50) under setting [1] is 201 nM. In the case of `Cn1c(CNc2cccc(C(=O)N[C@H]3COCc4ccccc43)c2)nnc1-c1ccncc1`, the IC50 under setting [1] came out at 100 nM.

On to `Cn1c(CNc2cccc(C(=O)N[C@@H]3COc4cc(F)ccc43)c2)nnc1-c1ccncc1`, for which the IC50 under setting [1] turned out to be 143 nM. For the compound `COc1cccc([C@H](C)NC(=O)c2cccc(NCc3nnc(-c4ccncc4)n3C)c2)c1`, under setting [1], the half-inhibitory concentration (IC50) was determined as 117 nM. Take `CC(Cc1ccccn1)NC(=O)c1cccc(NCc2nnc(-c3ccncn3)n2C)c1` (stereo not shown): the half-inhibitory concentration (IC50) under setting [2] turned out to be 290 nM. Regarding `Cn1c(CNc2cccc(C(=O)NC(C)(CO)c3ccccn3)c2)nnc1-c1ccncn1` (stereo not shown), under setting [2], the IC50 was found to be 511 nM. On to `Cn1c(CNc2cccc(C(=O)NC(CO)c3ccccn3)c2)nnc1-c1ccncn1` (stereo not shown), for which the half-inhibitory concentration (IC50) under setting [2] stood at 177 nM. On to `Cn1c(CNc2cccc(C(=O)NC3CCCn4nccc43)c2)nnc1-c1ccncn1` (stereo not shown), for which, under setting [2], the concentration for half-maximal inhibition (IC50) was found to be 171 nM. With `CC(Cc1nccn1C)NC(=O)c1cccc(NCc2nnc(-c3ccncn3)n2C)c1` (stereo not shown), under setting [2], the IC50 stood at 732 nM. On the same count and under the same terms, the figure for `Cn1c(CNc2cccc(C(=O)NCC3Cc4ccccc4O3)c2)nnc1-c1ccncn1` (stereo not shown) is 208 nM.

Regarding `CCn1ccnc1C(C)NC(=O)c1cccc(NCc2nnc(-c3ccncn3)n2C)c1` (stereo not shown), under setting [2], the half-maximal inhibitory concentration (IC50) came out at 189 nM. Consider `CC(C)C(NC(=O)c1cccc(NCc2nnc(-c3ccncn3)n2C)c1)c1nccn1C` (stereo not shown), for which the half-inhibitory concentration (IC50) under setting [2] amounted to 152 nM.

In the case of `Cc1nc2c(c(C)c1CNC(=O)c1cccc(NCc3nnc(-c4ccncn4)n3C)c1)c(=O)[nH]n2C`, the IC50 under setting [2] was 181 nM. Same read-out and setting: the figure for `Cn1c(CNc2cccc(C(=O)NC3CCCc4c3ccc(=O)n4C)c2)nnc1-c1ccncn1` (stereo not shown) is greater than 1000 nM; for `CN1CCN(S(=O)(=O)c2ccccc2CNC(=O)c2cccc(NCc3nnc(-c4ccncn4)n3C)c2)CC1` it is 344 nM; for `COc1ccc([C@H](C)NC(=O)c2cccc(NCc3nnc(-c4ccncn4)n3C)c2)c(OC)c1` it is 310 nM. Still for that read-out and setting: for `COc1ccc([C@@H](C)NC(=O)c2cccc(NCc3nnc(-c4ccncn4)n3C)c2)c(OC)c1` the value was 8.56 nM; for `COc1ccccc1[C@H](NC(=O)c1cccc(NCc2nnc(-c3ccncn3)n2C)c1)c1noc(C)n1`, 741 nM. With `COc1ccccc1[C@@H](NC(=O)c1cccc(NCc2nnc(-c3ccncn3)n2C)c1)c1noc(C)n1`, under setting [2], the half-maximal inhibitory concentration (IC50) is 333 nM. Still for that read-out and setting: the figure for `CCCCCOc1ccc2c(c1)[C@H](NC(=O)c1cccc(NCc3nnc(-c4ccncn4)n3C)c1)CCO2` is 732 nM; for `CCCCCOc1ccc2c(c1)[C@H](NC(=O)c1cccc(NCc3nnc(-c4ccncn4)n3C)c1)CO2` it is 550 nM. On the same count and under the same terms, the figure for `C[C@@H](NC(=O)c1cccc(NCc2nnc(-c3ccncc3)n2CCO)c1)c1ncccc1Cl` is 11.9 nM; for `Cn1c(CNc2cc(C(=O)N[C@@H]3COCc4ccccc43)ccn2)nnc1-c1ccncn1` it is 18.7 nM; for `CNS(=O)(=O)c1cccc(F)c1CNC(=O)c1ccnc(NCc2nnc(-c3ccncn3)n2C)c1` it is 15.1 nM. On to `Cn1c(CNc2cc(C(=O)N[C@@H]3COc4cc(F)ccc43)ccn2)nnc1-c1ccncn1`, for which the half-inhibitory concentration (IC50) under setting [2] was 37.5 nM.

`Cc1cccnc1CNC(=O)c1cccc(NCc2nnc(-c3ccncc3F)n2C)c1`: the IC50 under setting [2] came to 312 nM. Take `Cn1c(CNc2cccc(C(=O)NCc3ccncc3Cl)c2)nnc1-c1ccncc1F`: the IC50 under setting [2] was 31.9 nM.

In the case of `Cc1cc2c(cc1CNC(=O)c1cccc(NCc3nnc(-c4ccncc4F)n3C)c1)OCCO2`, the IC50 under setting [2] was determined as 8 nM. The same measure, in the same setting: for `C#COc1ccc(C(=O)c2ccc(OCCCCC(=O)NCCOCCOCCOc3cccc(CNC(=O)c4cccc(NCc5nnc(-c6ccncn6)n5C)c4)c3)cc2)cc1` the value was greater than 1000 nM. As for `Cc1cccnc1CNC(=O)c1cccc(NCc2nnc(-c3ccncn3)n2C)c1` [compound 11], the IC50 under setting [3] was 14 nM. Take `Cn1c(CNc2cccc(C(=O)NCc3ccncc3Cl)c2)nnc1-c1ccncn1` [compound 13]: the IC50 under setting [3] stood at 9.1 nM.

On to `CN1CCC(NC(=O)c2cccc(NCc3nnc(-c4ccncn4)n3C)c2)c2ccccc21` (stereo not shown) [compound 16], for which, under setting [3], the IC50 is 37 nM. For the compound `Cn1c(CNc2cccc(C(=O)NCc3ccnc(OCC(F)(F)F)c3)c2)nnc1-c1ccncn1` [compound 19], under setting [3], the concentration for half-maximal inhibition (IC50) was 17 nM. Consider `CCC[C@H](NC(=O)c1cccc(NCc2nnc(-c3ccncn3)n2C)c1)c1ccccn1` [compound 21], for which the IC50 under setting [3] came out at 67 nM. For `C[C@H](NC(=O)c1cccc(NCc2nnc(-c3ccncn3)n2C)c1)c1cccnc1` [compound 22], the IC50 under setting [3] stood at 420 nM. Take `Cn1c(CNc2cccc(C(=O)NCc3cccc4cccnc34)c2)nnc1-c1ccncn1` [compound 24]: the 50% inhibitory concentration (IC50) under setting [3] worked out at 61 nM.
